Marks after values point to notes of the source that are not given here.
Columns and labels:
[1] = Intrinsic dissolution rate, fibre optic UV probe with SOTAX dissolution apparatus; type: physicochemical; conditions: pH 6.5 buffer, 37° C., 50 mg discs, UV at 260 nm, triplicate
Protocol: The intrinsic dissolution rate was determined by using a fibre optic UV probe, measuring at 260 nm, with a SOTAX dissolution apparatus. Each of the pots in the dissolution batch was filled with 500 ml of pH 6.5 buffer and heated to 37° C. 50 mg Of each compound was weighed out in triplicate. Each of these samples was placed into a 4 mm dye and compressed at 50 psi for 5 minutes to produce suitable discs. These discs were then placed into the dissolution bath and the UV absorbance measured at regular intervals. Standards were prepared at approximately 20 μg/ml concentrations in pH 6.5 buffer. Scans of the background and corresponding standards were taken and a standard recovery check was produced.

[2] = Stability of the salts on storage, assessed by NMR; conditions: for stability of the salt: prolonged storage at ambient (400 MHz proton NMR), ammonium salt also vacuum drying at 50° C. overnight
[3] = Solubility of the salts in water, N-methylpyrrolidinone and IMS

SMILES	IDR (intrinsic dissolution rate) [1]	stability of the salt [2]	solubility in N-methylpyrrolidinone ([3]; N-methylpyrrolidinone)	solubility in water ([3]; water)	stability of the salt assessed by NMR ([2]; 2 days at 50° C.)
COc1nc(C)cnc1NS(=O)(=O)c1cccnc1-c1ccc(-c2nnco2)cc1.N [Compound (I) Ammonium Salt]	0.14 mg/min/cm^2	relatively unstable	is not	very water soluble	–
COc1nc(C)cnc1NS(=O)(=O)c1cccnc1-c1ccc(-c2nnco2)cc1.NCCO [Compound (I) Ethanolamine Salt]	0.84 mg/min/cm^2	–	–	–	stable
COc1nc(C)cnc1[N-]S(=O)(=O)c1cccnc1-c1ccc(-c2nnco2)cc1.[Na+] [Compound (I) Sodium Salt]	1.37 ^a mg/min/cm^2	very stable	–	–	–
COc1nc(C)cnc1NS(=O)(=O)c1cccnc1-c1ccc(-c2nnco2)cc1 [Compound (I), N-(3-methoxy-5-methylpyrazin-2-yl)-2-(4-[1,3,4-oxadiazol-2-yl]phenyl)pyridine-3-sulphonamide]	0.05 mg/min/cm^2	–	–	–	–

— patent publication US20120101109A1, “ETHANOLAMINE SALT OF N- (3-METHOXY-5-METHYLPYRAZIN-2YL) -2- (4-[1, 3, 4-OXADIAZOLE-2-YL] PHENYL) PYRIDINE-3- SULPHONAMIDE” (ASTRAZENECA AB, priority 2005, published 2012)
